According to paper PMC7321108, “1-Hydroxyanthraquinones Containing Aryl Substituents as Potent and Selective Anticancer Agents” (Molecules, 2020):
Read-outs that look alike come from different tables or passages of the source.

How the values were obtained:
[1] = system: SNB-19 glioblastoma cells; assay: MTT cytotoxicity assay, SNB-19; format: cell-based; settings: Homo sapiens, 72 h incubation, mean ± SEM of three experiments, read-out: Cytotoxicity (GI50) against SNB-19
Protocol: (§1) The cytotoxicity of the synthesized series of 4-substituted 5, 13–17, 22, 23, 2-substituted 25–30 and 2,4-disubstituted 1-hydroxy-9,10-anthraquinones 33–38, 40–45 was evaluated against a panel of seven different human cancer cell lines (glioblastoma cancer cells, human prostate cancer cells, T-cellular human leucosis, breast cancer cells) and also a normal cell line of hTERT-immortalized lung fibroblasts, using conventional MTT assay. Doxorubicin (DOX) is clinically used to treat cancer as drug in world and have a very wide antitumor spectrum. That we use them as positive control compounds. The cytotoxicity was determined by measuring the concentration inhibiting human tumor cell viability by 50% (GI50).
(§2) The human cancer cells of the glioblastoma (U-87MG, SNB-19, T98G), prostate cancer cell line (LNCAP, DU-145), the cells of T-cellular human leucosis (MT-4) and human breast cancer cells (MDA-MB-231) were used in this study. The cells were cultured in the RPMI-1640 medium that contained 10% embryonic calf serum, L-glutamine (2 mmol/L), gentamicin ([…]) and lincomycin (30 mkg/mL) in a CO2 incubator at 37 °C. The tested compounds were dissolved in DMSO and added to the cellular culture at the required concentrations. Three wells were used for each concentration. The cells which were incubated without the compounds were used as a control. Cells were placed on 96-well microliter plates and cultivated at 37 °C in 5% CO2/95% air for 72 h. The cell viability was assessed through an MTT [3-(4,5-dimethylthiazol-2-yl)-[…]-2H-tetrazolium bromide] conversion assay. A total of 1% MTT was added to each well. Four hours later, DMSO was added and mixed for 15 min. Optical density (D) of the samples was measured on a BioRad 680 multi-well spectrophotometer (USA) at the wavelength of 450 nm. The 50% cytotoxic dose GI50) of each compound (i.e., the compound concentration that causes the death of 50% of cells in a culture, or decreases the optical density twice as compared to the control wells) was calculated from the data obtained. Statistical processing of the results was performed using the Microsoft Excel-2007, […] 6.0 and GraphPad Prism 5.0 programs. The results are given as an average value ± a deviation from the average (mean ± standard error of the mean (SEM)). Reliability of differences (p) was estimated using the Student t test. The differences with p < 0.05 were considered as reliable. The experimental results are given as the data average values obtained from three independently conducted experiments.

[2] = system: U-87MG glioblastoma cells; assay: MTT cytotoxicity assay, U-87MG; format: cell-based; settings: Homo sapiens, 72 h incubation, mean ± SEM of three experiments, read-out: Cytotoxicity (GI50) against U-87MG
Protocol: as §1, §2

[3] = system: T98G glioblastoma cells; assay: MTT cytotoxicity assay, T98G; format: cell-based; settings: Homo sapiens, 72 h incubation, mean ± SEM of three experiments, read-out: Cytotoxicity (GI50) against T98G
Protocol: as §1, §2

[4] = system: LNCAP prostate cancer cells; assay: MTT cytotoxicity assay, LNCAP; format: cell-based, human; settings: 72 h incubation, mean ± SEM of three experiments, read-out: Cytotoxicity (GI50) against LNCAP
Protocol: as §1, §2

[5] = system: DU-145 prostate cancer cells; assay: MTT cytotoxicity assay, DU-145; format: cell-based, human; settings: Homo sapiens, DU-145, 72 h, 72 h incubation, mean ± SEM of three experiments, read-out: Cytotoxicity (GI50) against DU-145
Protocol: as §1, §2

[6] = system: MT-4 cells of T-cellular human leucosis; assay: MTT cytotoxicity assay, MT-4; format: cell-based; settings: MT4, 72 h incubation, mean ± SEM of three experiments, read-out: Cytotoxicity (GI50) against MT-4
Protocol: as §1, §2

[7] = system: MDA-MB-231 breast cancer cells; assay: MTT cytotoxicity assay, MDA-MB-231; format: cell-based; settings: Homo sapiens, 72 h incubation, mean ± SEM of three experiments, read-out: Cytotoxicity (GI50) against MDA-MB-231
Protocol: as §1, §2

[8] = MTT cytotoxicity assay, normal hTERT-immortalized lung fibroblasts; format: cell-based; settings: human, hTERT-immortalized lung fibroblasts (normal cell line), 72 h incubation, mean ± SEM of three experiments, read-out: Cytotoxicity (GI50) against hTERT Lung Fibroblasts
Protocol: as §1, §2

[9] = system: pUC19 DNA plasmid; assay: Gel retardation (electrophoretic mobility shift) assay; format: binding; settings: 0.5 µg pUC19 plasmid, 0.025 µM test compound, room temperature 1 h, agarose gel 60 V 4 h
Protocol: The interaction of compounds 13, 15, 16, 23, 25 27, 28, 35, 40 and 44 with DNA was experimentally confirmed by study of the electrophoretic mobility. For this the gel retardation assay was performed. Doxorubicin in different concentration was used as a positive control. In order to avoid destruction of the possible complex of DNA with compounds, the electrophoresis was performed at low voltage. The results are presented at Figure 3.
To study the interaction between test compounds and DNA the electrophoretic mobility shift assay was performed. 0.5 µg of pUC19 plasmid was incubated with 0.025 µM of test compounds at room temperature for 1 h. After that the electrophoresis was performed in agarose gel (1/2%) in TBE buffer (60 V, 4 h). For visualization the gel was staining with ethidium bromide and analyzed with Bio-Rad gel documentation system.

| SMILES | melting point | GI50 [1] [µM] | GI50 [2] [µM] | GI50 [3] [µM] | GI50 ([4]; Homo sapiens, LNCaP, 72 h) [µM] | GI50 [5] [µM] | GI50 [6] [µM] | GI50 [7] [µM] | GI50 at 72 h [8] [µM] | Retardation of plasmid DNA (electrophoretic mobility) [9] | GI50 [4] [µM] |
| --- | --- | --- | --- | --- | --- | --- | --- | --- | --- | --- | --- |
| COc1ccc(-c2ccc(O)c3c2C(=O)c2ccccc2C3=O)cc1 [Compound 15, 1-Hydroxy-4-(4-methoxyphenyl)anthracene-9,10-dione] | 209.2 to 209.4 °C | 9.6 ± 1.04 | 45.4 ± 1.87 | 11.6 ± 0.78 | 28.5 ± 0.96 | 6.5 ± 0.48 | 32.1 ± 1.54 | 6.8 ± 0.58 | 42 ± 2.04 | cause a retardation of plasmid DNA | – |
| COc1ccc(-c2ccc3c(c2O)C(=O)c2ccccc2C3=O)cc1 [Compound 27, 1-Hydroxy-2-(4-methoxyphenyl)anthracene-9,10-dione] | 209.5 °C (dec.) | 8.5 ± 0.32 | 35.8 ± 2.17 | 21.6 ± 0.38 | > 100 | 19.1 ± 0.78 | 38.6 ± 1.36 | 23.2 ± 2.34 | 46.5 ± 1.21 | cause a retardation of plasmid DNA | – |
| COc1ccc(-c2cc(-c3ccc(OC)cc3)c3c(c2O)C(=O)c2ccccc2C3=O)cc1 [Compound 35, 1-Hydroxy-2,4-di-(4-methoxyphenyl)anthracene-9,10-dione] | 226.4 °C (dec.) | 10.1 ± 1.08 | 25.7 ± 3.14 | 9.8 ± 0.56 | 26.7 ± 1.86 | 5.9 ± 0.52 | 20.2 ± 1.04 | 7.6 ± 0.64 | 17.7 ± 0.96 | cause a retardation of plasmid DNA | – |
| COc1cccc(-c2cc(-c3cccc(OC)c3OC)c3c(c2O)C(=O)c2ccccc2C3=O)c1OC [Compound 36, 2,4-Di-(2,3-dimethoxyphenyl)-1-hydroxyanthracene-9,10-dione] | 192.9 °C (dec.) | 37 ± 1.41 | 36.8 ± 1.42 | 15.5 ± 0.92 | 16.7 ± 1.86 | 10.6 ± 1.12 | 25.8 ± 0.94 | 22.6 ± 0.86 | 12.2 ± 2.08 | – | – |
| O=C1c2ccccc2C(=O)c2c(O)c(-c3cc(F)cc(F)c3)cc(-c3cc(F)cc(F)c3)c21 [Compound 37, 2,4-Di-(3,5-difluorophenyl)-1-hydroxyanthracene-9,10-dione] | 263.3 °C (dec.) | 9.1 ± 0.68 | 8.7 ± 0.89 | 10.1 ± 0.78 | 6.2 to 7.2 | 5.8 ± 0.38 | 56.6 ± 1.28 | 8.2 ± 0.96 | 10.5 ± 1.98 | – | 6.2 ± 0.43 |

Now from value to compound, other results behind:

| melting point | SMILES | GI50 [1] [µM] | GI50 [2] [µM] | GI50 [3] [µM] | GI50 ([4]; Homo sapiens, LNCaP, 72 h) [µM] | GI50 [5] [µM] | GI50 [6] [µM] | GI50 [7] [µM] | GI50 at 72 h [8] [µM] | Retardation of plasmid DNA (electrophoretic mobility) [9] | GI50 [4] [µM] |
| --- | --- | --- | --- | --- | --- | --- | --- | --- | --- | --- | --- |
| 187.1 °C (dec.) | COc1ccc(-c2cc(Br)c3c(c2O)C(=O)c2ccccc2C3=O)cc1 [Compound 40, 4-Bromo-1-hydroxy-2-(4-methoxyphenyl)anthracene-9,10-dione] | 6.1 ± 0.38 | 10.2 ± 1.03 | 8.1 ± 0.98 | 22.2 ± 1.26 | 7.1 ± 0.72 | 35.6 ± 3.28 | 10.5 ± 1.03 | 16.5 ± 0.46 | – | – |
| 241.3 °C (dec.) | COc1ccc(-c2cc(Br)c(O)c3c2C(=O)c2ccccc2C3=O)cc1 [Compound 41, 2-Bromo-1-hydroxy-4-(4-methoxyphenyl)anthracene-9,10-dione] | 14.1 ± 3.15 | 44.5 ± 1.56 | 29.7 ± 2.05 | 41.1 ± 5.15 | > 100 | 44.1 ± 3.23 | 15.8 ± 0.82 | 17.2 ± 0.62 | – | – |
| 217.4 °C (dec.) | COc1cc(-c2cc(Br)c3c(c2O)C(=O)c2ccccc2C3=O)cc(OC)c1OC [Compound 42, 4-Bromo-1-hydroxy-2-(3,4,5-trimethoxyphenyl)anthracene-9,10-dione] | 31.6 ± 2.16 | > 100 | 11.5 ± 1.34 | 71.8 ± 9.76 | 23.9 ± 4.28 | > 100 | 21.1 ± 3.28 | 18.2 ± 2.19 | – | – |
| 60.4 °C (dec.) | COc1cc(-c2cc(-c3ccccc3)c3c(c2O)C(=O)c2ccccc2C3=O)cc(OC)c1OC [Compound 43, 1-Hydroxy-4-phenyl-2-(3,4,5-trimethoxyphenyl)anthracene-9,10-dione] | 19.2 ± 2.52 | > 100 | 16.1 ± 0.78 | > 100 | 18.6 ± 2.45 | > 100 | 17.1 ± 1.55 | 34.1 ± 0.92 | – | – |
| 226.8 °C (dec.) | COc1cc(-c2cc(-c3ccc(Cl)cc3C(F)(F)F)c3c(c2O)C(=O)c2ccccc2C3=O)cc(OC)c1OC [Compound 45, 4-(4-Chloro-2-(trifluoromethyl)phenyl)-1-hydroxy-2-(3,4,5-trimethoxyphenyl)-anthracene-9,10-dione] | 11.2 ± 1.49 | 18.2 ± 1.06 | 28.3 ± 3.25 | 6.2 to 7.2 | 22.6 ± 0.91 | 31.5 ± 1.52 | 14.2 ± 1.42 | 20.5 ± 2.68 | – | 7.2 ± 0.74 |
